This passage reports logP and chromatographic logP results from patent US8501781B2 (priority 2009, dated 2013).

By logP is commonly meant the decadic logarithm of the partition coefficient of the neutral form, usually between octanol and water.

Marks after values point to notes of the source that are not given here.

The data set is described as follows: logP by HPLC (EEC Directive 79/831 Annex V.A8). It counts as physicochemical. Particulars: for chromatographic logP: pH 2.7, given in the preparation examples, read-out: log P (pH 2.7).
[1] abbreviates: [b] LC-MS, acidic range, pH 2.7, 0.1% aqueous formic acid and acetonitrile.
[2] abbreviates: [c] LC-MS, neutral range, pH 7.8, 0.001 molar aqueous ammonium bicarbonate and acetonitrile.

For `Cc1ccc(C)c(NC(=O)N2CCC(c3nc(C(=O)Oc4c(Cl)cccc4Cl)cs3)CC2)c1` [Example 151], the log partition coefficient (logP) under setting [1] was 3.82^[b].

As for `Cc1ccc(C)c(NC(=O)N2CCC(c3nc(C(=O)Oc4c(F)cccc4Br)cs3)CC2)c1` [Example 152], the logP under setting [1] was 3.86^[b].

In the case of `Cc1ccc(C)c(NC(=O)N2CCC(c3nc(C(=O)OC(C)c4ccccc4F)cs3)CC2)c1` (stereo not shown) [Example 153], the logP under setting [1] is 3.71^[b].

For the molecule `Cc1ccc(C)c(NC(=O)N2CCC(c3nc(C(=O)Oc4ccccc4I)cs3)CC2)c1` [Example 154], the logP under setting [1] was 3.69^[b].

On to `Cc1ccc(C)c(NC(=O)N2CCC(c3nc(C(=O)OCc4c(F)cccc4Br)cs3)CC2)c1` [Example 155], for which the lipophilicity (logP) under setting [1] was 3.79^[b].

As to `Cc1ccc(C)c(NC(=O)N2CCC(c3nc(C(=O)OC(C)c4c(Cl)cccc4Cl)cs3)CC2)c1` (stereo not shown) [Example 156], under setting [1], the logP was 4.35^[b].

`Cc1ccc(C)c(NC(=O)N2CCC(c3nc(C(=O)OCCc4c(Cl)cccc4Cl)cs3)CC2)c1` [Example 157]: the lipophilicity (logP) under setting [1] was 4.29^[b].

`Cc1ccc(C)c(NC(=S)N2CCC(c3nc(C(=O)OC4CCCCC4c4ccccc4)cs3)CC2)c1` (stereo not shown) [Example 158]: the logP under setting [1] is 4.73^[b].

Take `Cc1ccc(Cl)cc1NC(=S)N1CCC(c2nc(C(=O)OC3CCCCC3c3ccccc3)cs2)CC1` (stereo not shown) [Example 159]: the logP under setting [1] is 4.83^[b].

For `Cc1ccc(C)c(NC(=O)N2CCC(c3nc(C(=O)OC4CCCCC4c4ccc(F)c(F)c4)cs3)CC2)c1` (stereo not shown) [Example 160], the logP under setting [1] was 4.52^[b].

Regarding `Cc1ccc(Cl)cc1NC(=O)N1CCC(c2nc(C(=O)OCc3c(F)cccc3Cl)cs2)CC1` [Example 161], under setting [1], the logP is 3.89^[b].

With `COc1ccc(C)cc1NC(=O)N1CCC(c2nc(C(=O)OCc3c(F)cccc3Cl)cs2)CC1` [Example 162], under setting [1], the logP is 3.92^[b].

`Cc1ccc(Cl)cc1NC(=O)N1CCC(c2nc(C(=O)OCc3c(F)cccc3F)cs2)CC1` [Example 163]: under setting [1], the logP is 3.62^[b].

With `COc1ccc(C)cc1NC(=O)N1CCC(c2nc(C(=O)OCc3c(F)cccc3F)cs2)CC1` [Example 164], the logP under setting [1] is 3.66^[b].

Regarding `Cc1cc(C(F)(F)F)nn1CC(=O)N1CCC(F)(c2nc(C(=O)OCc3c(F)cccc3F)cs2)CC1` [Example 165], the lipophilicity (logP) by setting is: under setting [1], 3.65; under setting [2], 3.67.

In turn, `Cc1ccc(Cl)cc1NC(=O)N1CCC(F)(c2nc(C(=O)OCc3c(F)cccc3F)cs2)CC1` [Example 166] displayed a logP under setting [1] of 3.87 and a logP under setting [2] of 3.86.

As to `Cc1ccc(Cl)cc1NC(=O)N1CCC(F)(c2nc(C(=O)OC3CCCCC3)cs2)CC1` [Example 167], the logP is reported as 4.33 under setting [1] and 4.32 under setting [2].

Regarding `O=C(OCc1c(F)cccc1F)c1csc(C2(F)CCN(C(=O)Cn3nc(C(F)F)cc3C(F)F)CC2)n1` [Example 168], the logP reads like this: under setting [1], 3.53; under setting [2], 3.56.

Turning to `COc1ccc(C)cc1NC(=O)N1CCC(F)(c2nc(C(=O)OC3CCCCC3)cs2)CC1` [Example 169], the logP reads like this: under setting [1], 4.4; under setting [2], 4.42.

On to `Cc1cc(C(F)(F)F)nn1CC(=O)N1CCC(F)(c2nc(C(=O)OC3CCCCC3)cs2)CC1` [Example 170], for which the logP is given as 4.07 under setting [1] and 4.09 under setting [2].

In the case of `Cc1ccc(C)c(NC(=O)N2CCC(F)(c3nc(C(=O)OCc4c(F)cccc4F)cs3)CC2)c1` [Example 171], the lipophilicity (logP) is reported as 3.69 under setting [1] and 3.71 under setting [2].

For `Cc1ccc(C)c(NC(=O)N2CCC(F)(c3nc(C(=O)OC4CCCCC4)cs3)CC2)c1` [Example 172], the lipophilicity (logP) by setting is: under setting [1], 4.15^[c]; 4.15^[b]; under setting [2], 4.15^[c]; 4.15^[b].

For `COc1ccc(C)cc1NC(=O)N1CCC(F)(c2nc(C(=O)OCc3c(F)cccc3F)cs2)CC1` [Example 173], the logP amounted to 3.80 under setting [1] and 3.92 under setting [2].

As for `COCCOCC(=O)N1CCC(c2nc(C(=O)OC3CCCCC3)cs2)CC1` [Example 174], for the setting “[a] acidic range, pH 2.3, 0.1% aqueous phosphoric acid and acetonitrile”, the logP was 2.37^[a].

`O=C(OCc1c(F)cccc1F)c1cnc(C2CCN(C(=O)Cn3nc(C(F)F)cc3C(F)F)CC2)s1` [Example 175]: the logP under setting [1] is 3.45^[b].

Regarding `O=C(Oc1c(F)cccc1Cl)c1cnc(C2CCN(C(=O)Cn3nc(C(F)F)cc3C(F)F)CC2)s1` [Example 176], under setting [1], the logP was 3.67^[b].

Regarding `Cc1cccc(COC(=O)c2cnc(C3CCN(C(=O)Cn4nc(C(F)F)cc4C(F)F)CC3)s2)c1C` [Example 177], the logP under setting [1] is 4.00^[b].

For the molecule `O=C(OC1CCCCC1)c1cnc(C2CCN(C(=O)Cn3nc(C(F)F)cc3C(F)F)CC2)s1` [Example 178], the logP under setting [1] is 3.97^[b].

Consider `O=C(OC1CCCCC1)c1csc(C2CCNCC2)n1` [VII-1, 4-{4-[(Cyclohexyloxy)carbonyl]-1,3-thiazol-2-yl}piperidinium chloride], for which the chromatographic logP is 1.25.

Consider `CC(C)(C)OC(=O)N1CCC(c2nc(C(=O)O)cs2)CC1` [XXXI-1, 2-[1-(tert-Butoxycarbonyl)piperidin-4-yl]-1,3-thiazole-4-carboxylic acid], for which the chromatographic logP was determined as 2.04.

As to `CC(C)(C)OC(=O)N1CCC(c2nc(C(=O)OC3CCCCC3)cs2)CC1` [XXXIII-1, tert-Butyl 4-{4-[(cyclohexyloxy)carbonyl]-1,3-thiazol-2-yl}piperidine-1-carboxylate], the chromatographic logP was determined as 4.62.
